Assay: gradient 5% acetonitrile 3 min, to 50% in 2 min, to 85% in 15 min, held 3 min, 100 µL/min
Conditions: column: Zorbax Extend-C18 2.1 x 50 mm; eluents: water / acetonitrile, 0.1% formic acid
In short: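 A Zorbax Extend-C18 column (2.1 × 50 mm, 1.8 μm) run at 100 μL/min with water and acetonitrile, both containing 0.1% formic acid, separated mixtures of ~100 pure standards. The HPLC was coupled to a quadrupole time-of-flight mass spectrometer operated in positive and negative ionization mode, with dead and dwell volumes of 40 μL and 900 μL. Each retention time was taken from a computationally picked adduct peak that was then manually inspected.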

Row | RP-LC retention time [s] | Structure (SMILES)
1 | 801 | COc1ccc(Cl)c2c(=O)c3c([nH]c12)CCN(CC(=O)Nc1cccc(C#N)c1)C3
2 | 674 | O=C(CCc1c(-c2ccccc2)nc2ccccn12)Nc1ccc(F)cc1
3 | 627 | O=C(O)c1cccn2c(=O)c3ccccc3nc12
4 | 910 | CSc1cccc(NC(=O)Cn2c(=O)n(-c3ccc(C)cc3)c(=O)c3c2cc(C)n3C)c1
5 | 884 | CCCn1cc(CCNC(=O)Nc2ccc(C)c(Cl)c2)c2cccnc21
6 | 922 | COc1ccc(C)cc1NS(=O)(=O)c1ccc(-c2nnc(C3CCC3)o2)o1
7 | 824 | CCc1ccc(NC(=O)C2CCCN(c3ncnc4c3nc3n4CCCCC3)C2)cc1 (configuration not stated)
8 | 1250 | COc1cccc(-n2c(=O)c(C(=O)Nc3ccc(F)c(Cl)c3)c(O)c3cccnc32)c1
9 | 593 | CCCn1ccc2sc(C)c(C(=O)N3CCN(c4ccccn4)CC3)c2c1=O
10 | 1090 | O=C(c1cc(F)ccc1F)N1CCc2nc(-c3ccc(Cl)cc3)ncc2C1
11 | 680 | O=C(c1c(F)cccc1Cl)N1CCN(c2ccc3nnc(-c4ccco4)n3n2)CC1
12 | 583 | CCCN1CCN(c2ncnc3sc(C(=O)NCCCN4CCCC4)c(C)c23)CC1
13 | 667 | NC(=O)COc1cc(-c2cccc(Cl)c2)nc2ccc(NC(=O)C3CC3)cc12
14 | 916 | COc1cc(-c2nnc(-c3cccc(S(=O)(=O)N4CCCC4)c3)o2)cc(OC)c1OC
15 | 635 | COCc1nncn1C1CCN(C(=O)c2cc(F)ccc2Cl)CC1
16 | 843 | Cc1cc(C)n(-c2ccnc(N3CCC(C(=O)NCCc4cccs4)CC3)n2)n1
17 | 646 | O=C(NCc1ccc(N2CCCC2)nc1)c1cccc(Br)c1
18 | 608 | Cn1c(Cn2c(=O)sc3ccccc32)nnc1SCC(=O)NCC1CCCO1 (configuration not stated)
19 | 653 | COCCCNC(=O)CCc1c(C)n(C)c2nc(-c3ccccc3)nn2c1=O
20 | 924 | CCCCN1C(=O)C(C)(C(=O)Nc2cccc(F)c2)Oc2cccnc21 (configuration not stated)
21 | 594 | CCN1CCN(CCCNC(=O)c2c(-c3ccc(Br)s3)noc2C)CC1
22 | 530 | CCn1ncc(CN2CCCCC2CCn2cc(-c3ccccc3)nn2)c1C (configuration not stated)

Second part, the compound before the results:

Row | Structure (SMILES) | RP-LC retention time [s]
23 | O=C1C(Br)=Cc2cccc3cccc1c23 | 996
24 | COc1cccc2cc(C(=O)NCc3ccc(S(N)(=O)=O)cc3)oc12 | 669
25 | CCc1nnc(-c2cc(C)n(CC(=O)Nc3cc(C)ccc3C)c2C)o1 | 789
26 | COCCOC1CCN(S(=O)(=O)c2cccc(OC)c2)CC1 | 811
27 | O=C(N[C@@H]1CN(Cc2ccccn2)C[C@H]1CO)C1(c2ccccc2)CC1 | 608
28 | O=C(NC1CCCCC1)N1CCC2(CC1)NCc1ccccc1-n1ccnc12 | 608
29 | CCn1nc(C)c(CCN(C)C(=O)Nc2cccc(C(=O)OC)c2)c1C | 644
30 | O=C(c1cc(S(=O)(=O)N2CCCC(C(=O)N3CCCCCC3)C2)c[nH]1)N1CCCC1 (configuration not stated) | 729
31 | C=CCN1C(=O)COc2ccc(-c3nc(NC(=O)C4CCCCC4)sc3C)cc21 | 1080
32 | CCCNC(=O)CN1C(=O)CC(c2ccc(Br)s2)=Nc2ccccc21 | 913
33 | Cc1cccc(NC(=O)CSc2nnc(NC(=O)CN(C)S(C)(=O)=O)s2)c1C | 618
34 | Cc1nc(OCC(=O)NCc2ccc(N(C)C)cc2)c2c(C)c(C)oc2n1 | 653
35 | Cc1nc(-c2cc(S(=O)(=O)Nc3ccc(F)c(Cl)c3)c(C)s2)cs1 | 1030
36 | COCCN1C(=O)c2ccccc2C(C(=O)Nc2nc(C)cs2)C12CCCCC2 (configuration not stated) | 810
37 | O=C(Cn1c(=O)n(C2CC2)c(=O)c2nscc21)NCCC1=CCCCC1 | 776
